# Activity calls are given as the source filed them. No cut-off for these calls is given here.
# Assays:
# [1] = system: SGC-7901; assay: Antiproliferative activity against human SGC-7901 cells assessed as inhibition of cell proliferation incubated for 48 hrs by MTT assay; type: functional, cell-based; details: SGC-7901, 48 h
# [2] = system: NCI-H1975; assay: Antiproliferative activity against human NCI-H1975 cells assessed as inhibition of cell proliferation incubated for 48 hrs by MTT assay; type: functional, cell-based; details: NCI-H1975, 48 h
# [3] = biological target: Tubulin (Homo sapiens) (UniProt P68371+Q9H4B7+P0DPH7+P68366+Q13509+Q71U36+P04350+Q3ZCM7+P07437+P68363+Q9BQE3+Q6PEY2+Q13885+Q9BVA1+Q9BUF5); assay: Disruption of microtubule network in human MGC-803 cells assessed as irregular cellular morphology at 0.25 to 2.0 nmol/L incubated for 24 hrs by DAPI staining based fluorescence microscopic analysis; type: cell-based; details: dose 0.25-2 nmol/L
# [4] = system: MGC-803; assay: Antiproliferative activity against human MGC-803 cells by MTT assay; type: functional, cell-based; details: dose 0.25-2 nmol/L
# [5] = system: MGC-803; assay: Inhibition of colony formation in human MGC-803 cells at 0.5 nmol/L incubated for 7 days by crystal violet staining based colony formation assay relative to control; type: functional; details: MGC-803, 168 h, time 7 day
# [6] = system: HGC-27; assay: Inhibition of colony formation in human HGC-27 cells incubated for 7 days by crystal violet staining based colony formation assay; type: functional, cell-based; details: dose 0.1-0.5 nmol/L, time 7.0 day
# [7] = system: HGC-27; assay: Induction of cell cycle arrest in human HGC-27 cells assessed as accumulation of cells at G2/M phase incubated for 24 hrs by RNase A/propidium iodide staining based flow cytometric analysis; type: functional; details: dose 0.25-2 nmol/L
# [8] = system: MGC-803; assay: Induction of cell cycle arrest in human MGC-803 cells assessed as downregulation of Wee1 level measured after 48 hrs by Western blot analysis; type: functional, cell-based; details: dose 0.25-2 nmol/L
# [9] = system: HGC-27; assay: Induction of cell cycle arrest at G2 phase in human HGC-27 cells assessed as increase in p-Histone H3 level at 0.25 to 2.0 nmol/L measured after 48 hrs by Western blot analysis; type: functional, cell-based; details: dose 0.25-2 nmol/L
# [10] = system: MGC-803; assay: Induction of apoptosis in human MGC-803 cells assessed as cell contraction at 0.25 to 2.0 nmol/L incubated for 48 hrs by bright field microscopic analysis; type: functional, cell-based; details: dose 0.25-2 nmol/L
# [11] = system: MGC-803; assay: Induction of apoptosis in human MGC-803 cells assessed as appearance of round cells at 0.25 to 2.0 nmol/L incubated for 48 hrs by bright field microscopic analysis; type: functional, cell-based; details: dose 0.25-2 nmol/L
# [12] = system: HGC-27; assay: Induction of apoptosis in human HGC-27 cells assessed as appearance of bright cells at 0.25 to 2.0 nmol/L incubated for 48 hrs by bright field microscopic analysis; type: functional, cell-based; details: dose 0.25-2 nmol/L
# [13] = system: HGC-27; assay: Induction of apoptosis in human HGC-27 cells assessed as appearance of ruptured cells at 0.25 to 2.0 nmol/L incubated for 48 hrs by bright field microscopic analysis; type: functional, cell-based; details: dose 0.25-2 nmol/L
# [14] = system: HGC-27; assay: Induction of apoptosis in human HGC-27 cells assessed as downregulation of Bcl-2 expression incubated for 48 hrs by Western blotting analysis; type: functional, cell-based; details: dose 0.25-2 nmol/L
# [15] = system: HGC-27; assay: Induction of apoptosis in human HGC-27 cells assessed as increase in cleaved Caspase-9 expression at 0.25 to 2.0 nmol/L incubated for 48 hrs by Western blotting analysis; type: functional, cell-based; details: dose 0.25-2 nmol/L
# [16] = system: MGC-803; assay: Induction of apoptosis in human MGC-803 cells assessed as increase in cleaved Caspase-7 expression at 0.25 to 2.0 nmol/L incubated for 48 hrs by Western blotting analysis; type: functional, cell-based; details: dose 0.25-2 nmol/L
# [17] = system: MGC-803; assay: Induction of apoptosis in human MGC-803 cells assessed as late apoptotic cells at 0.25 nmol/L incubated for 48 hrs by Annexin V-FITC/propidium iodide staining based flow cytometry analysis (reference value: 2.22 %); type: functional
# [18] = system: MGC-803; assay: Induction of apoptosis in human MGC-803 cells assessed as late apoptotic cells at 1.5 nmol/L incubated for 48 hrs by Annexin V-FITC/propidium iodide staining based flow cytometry analysis (reference value: 2.22 %); type: functional
# [19] = system: MGC-803; assay: Induction of apoptosis in human MGC-803 cells assessed as late apoptotic cells at 2.0 nmol/L incubated for 48 hrs by Annexin V-FITC/propidium iodide staining based flow cytometry analysis (reference value: 2.22 %); type: functional
# [20] = system: HGC-27; assay: Induction of apoptosis in human HGC-27 cells assessed as late apoptotic cells at 0.5 nmol/L incubated for 48 hrs by Annexin V-FITC/propidium iodide staining based flow cytometry analysis (reference value: 3.70 %); type: functional
# [21] = system: HGC-27; assay: Induction of apoptosis in human HGC-27 cells assessed as early apoptotic cells at 2.0 nmol/L incubated for 48 hrs by Annexin V-FITC/propidium iodide staining based flow cytometry analysis (reference value: 2.04 %); type: functional
# [22] = system: HGC-27; assay: Induction of apoptosis in human HGC-27 cells assessed as total apoptotic rate at 2 nmol/L incubated for 48 hrs by Annexin V-FITC/propidium iodide staining based flow cytometry analysis relative to control; type: functional
# [23] = system: MGC-803; assay: Induction of apoptosis in human MGC-803 cells incubated for 48 hrs by Annexin V-FITC/propidium iodide staining based flow cytometry analysis; type: functional, cell-based; details: dose 0.25-2 nmol/L
# [24] = system: MGC-803; assay: Anti-migratory activity against human MGC-803 cells assessed as decrease in cell migration at 1 nmol/L measured after 24 hrs by wound healing assay relative to control; type: functional; parameters: scale not given: the % may be the effect or the level left
# [25] = system: HUVEC; assay: Anti-angiogenesis activity in HUVEC cells assessed as reduction in cell viability by measuring survival rate at 2 nmol/L incubated for 12 hrs by MTT assay relative to control; type: functional; details: Homo sapiens, read-out: Survival
# [26] = system: HUVEC; assay: Anti-angiogenesis activity in HUVEC cells assessed as reduction in cell viability by measuring survival rate at 2 nmol/L incubated for 24 hrs by MTT assay relative to control; type: functional; details: Homo sapiens, read-out: Survival
# [27] = system: HUVEC; assay: Anti-migratory activity against HUVEC cells assessed as wound healing rate at 0.5 nmol/L measured after 24 hrs by wound healing assay (reference value: 97 %); type: functional, Homo sapiens
# [28] = system: HUVEC; assay: Anti-migratory activity against HUVEC cells assessed as wound healing rate at 1 nmol/L measured after 24 hrs by wound healing assay (reference value: 97 %); type: functional, Homo sapiens
# [29] = system: HUVEC; assay: Anti-angiogenesis activity in HUVEC cells assessed as effect on cell vitality at <= 1 nmol/L measured within 24 hrs; type: functional, cell-based; details: Homo sapiens
# [30] = system: HUVEC; assay: Anti-vascular activity in HUVEC cells assessed as reduction in length of tubular network incubated for 5 hrs by Matrigel based inverted microscopic analysis; type: functional, cell-based; details: Homo sapiens, dose 0.5-2 nmol/L
# [31] = Toxicity in female BALB/c-nu nude mouse xenografted with human MGC-803 cells assessed as change in lung morphology at 5 mg/kg, po administrated every other day for 11 times and measured after 21 days by hematoxylin and eosin staining based analysis; type: organism-based; details: in vivo, 504 h, time 21 day
# [32] = biological target: T1, Tubulin beta (Homo sapiens) (UniProt P68371+Q9H4B7+Q13509+P04350+Q3ZCM7+P07437+Q13885+Q9BVA1+Q9BUF5+A6NNZ2); assay: Competitive binding affinity to beta-tubulin colchicine binding site in human MGC-803 cells assessed as reduction in EBI-beat tubulin adduct to beta-tubulin ratio preincubated for 2 hrs followed by EBI addition and measured after 2 hrs by Western blotting analysis; type: cell-based; details: dose 0.1-1 µmol/L, time 4.0 hrs
# [33] = biological target: T1, Tubulin beta (Homo sapiens); assay: Competitive binding affinity to beta-tubulin colchicine binding site in human HGC-27 cells assessed as reduction in EBI-beat tubulin adduct to beta-tubulin ratio preincubated for 2 hrs followed by EBI addition and measured after 2 hrs by Western blotting analysis; type: cell-based; details: dose 0.1-1 µmol/L, time 4.0 hrs
smiles,measurement,setting,value
CN(c1ccc2c(ccn2C)c1)c1nc(N2CCCC2)nc2sccc12,IC50,[1],2.01 nM
same,IC50,[2],2.96 nM
same,Activity,[3],Active
same,Activity,[4],Dose-dependent-effect
same,inhibition at 0.0005 µM,[5],> 90%
same,inhibition,[6],Dose-dependent-effect
same,Activity,[7],Dose-dependent-effect
same,Activity,[8],Dose-dependent-effect
same,Activity,[9],Active
same,Activity,[10],Active
same,Activity,[11],Active
same,Activity,[12],Active
same,Activity,[13],Active
same,Activity,[14],Dose-dependent-effect
same,Activity,[15],Active
same,Activity,[16],Active
same,Activity,[17],3.42%
same,Activity,[18],6.33%
same,Activity,[19],8.06%
same,Activity,[20],3.5%
same,Activity,[21],14.4%
same,Activity,[22],20%
same,Activity,[23],Dose-dependent-effect
same,Activity,[24],24%
same,viability at 0.002 µM,[25],75.6%
same,viability at 0.002 µM,[26],59.2%
same,Activity,[27],82%
same,Activity,[28],58%
same,Activity,[29],Active; Minimal Impact Observed
same,Activity,[30],Dose-dependent-effect
same,Activity,[31],Non-toxic
same,Activity,[32],Dose-dependent-effect
same,Activity,[33],Dose-dependent-effect
